Assay results taken from PubChem BioAssay (NCI).
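Five compound concentrations were applied to cells in 96-well plates for 48 hours; endpoints were derived by simple linear interpolation of the resulting dose-response curve. GI50 = concentration required for 50% inhibition of growth. The concentration for full growth arrest is given as TGI.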

Tests used:
Assay in all cases: NCI tumour cell line growth inhibition, 48 h
786-0 renal = test system: 786-0 renal
A498 renal = test system: A498 renal
A549 NSCLC = test system: A549 NSCLC
ACHN renal = test system: ACHN renal
BT-549 breast = test system: BT-549 breast
CAKI-1 renal = test system: CAKI-1 renal
CCRF-CEM leukemia = test system: CCRF-CEM leukemia
COLO 205 colon = test system: COLO 205 colon
DU-145 prostate = test system: DU-145 prostate
EKVX NSCLC = test system: EKVX NSCLC
HCC-2998 colon = test system: HCC-2998 colon
HCT-116 colon = test system: HCT-116 colon
HCT-15 colon = test system: HCT-15 colon
HL-60(TB) leukemia = test system: HL-60(TB) leukemia
HOP-62 NSCLC = test system: HOP-62 NSCLC
HOP-92 NSCLC = test system: HOP-92 NSCLC
HS 578T breast = test system: HS 578T breast
HT29 colon = test system: HT29 colon
IGROV1 ovarian = test system: IGROV1 ovarian
K-562 leukemia = test system: K-562 leukemia
KM12 colon = test system: KM12 colon
LOX IMVI melanoma = test system: LOX IMVI melanoma
M14 melanoma = test system: M14 melanoma
MALME-3M melanoma = test system: MALME-3M melanoma
MCF7 breast = test system: MCF7 breast
MDA-MB-231 breast = test system: MDA-MB-231 breast
MDA-MB-435 = test system: MDA-MB-435
MDA-N = test system: MDA-N
MOLT-4 leukemia = test system: MOLT-4 leukemia
NCI-H226 lung = test system: NCI-H226 lung
NCI-H23 lung = test system: NCI-H23 lung
NCI-H460 lung = test system: NCI-H460 lung
NCI-H522 lung = test system: NCI-H522 lung
NCI/ADR-RES ovarian = test system: NCI/ADR-RES ovarian
OVCAR-3 ovarian = test system: OVCAR-3 ovarian
OVCAR-4 ovarian = test system: OVCAR-4 ovarian
OVCAR-5 ovarian = test system: OVCAR-5 ovarian
OVCAR-8 ovarian = test system: OVCAR-8 ovarian
PC-3 prostate = test system: PC-3 prostate
RXF 393 renal = test system: RXF 393 renal
SF-268 CNS = test system: SF-268 CNS
SF-539 CNS = test system: SF-539 CNS
SK-MEL-28 melanoma = test system: SK-MEL-28 melanoma
SK-MEL-5 melanoma = test system: SK-MEL-5 melanoma
SK-OV-3 ovarian = test system: SK-OV-3 ovarian
SN12C renal = test system: SN12C renal
SNB-19 CNS = test system: SNB-19 CNS
SNB-75 CNS = test system: SNB-75 CNS
SR leukemia = test system: SR leukemia
SW-620 colon = test system: SW-620 colon
T-47D breast = test system: T-47D breast
TK-10 renal = test system: TK-10 renal
U251 CNS = test system: U251 CNS
UACC-257 melanoma = test system: UACC-257 melanoma
UACC-62 melanoma = test system: UACC-62 melanoma
UO-31 renal = test system: UO-31 renal
SF-295 CNS = test system: SF-295 CNS
RPMI-8226 leukemia = test system: RPMI-8226 leukemia

## CC(C)=CC(=O)O[C@H]1C(=O)O[C@@H]2C[C@H]3[C@H](C)C(=O)C(O[C@@H]4O[C@H](CO)[C@@H](O)[C@H](O)[C@H]4O)=C[C@]3(C)[C@H]3[C@@H](O)[C@H](O)[C@]4(C(=O)O)OC[C@]32[C@@H]14
786-0 renal
  TGI: > 100 µM
A498 renal
  TGI: > 100 µM
A549 NSCLC
  GI50: 55 µM
  TGI: > 100 µM
ACHN renal
  GI50: > 100 µM
  TGI: > 100 µM
BT-549 breast
  GI50: > 100 µM
  TGI: > 100 µM
CAKI-1 renal
  TGI: > 100 µM
CCRF-CEM leukemia
  GI50: 36.3 µM
  TGI: > 100 µM
COLO 205 colon
  TGI: > 100 µM
DU-145 prostate
  GI50: > 100 µM
  TGI: > 100 µM
EKVX NSCLC
  GI50: > 100 µM
  TGI: > 100 µM
HCC-2998 colon
  GI50: 24.7 µM
  TGI: 57.5 µM
HCT-116 colon
  GI50: 29.8 µM
  TGI: > 100 µM
HCT-15 colon
  GI50: > 100 µM
  TGI: > 100 µM
HL-60(TB) leukemia
  GI50: 35.8 µM
  TGI: > 100 µM
HOP-62 NSCLC
  GI50: 33.2 µM
  TGI: > 100 µM
HOP-92 NSCLC
  GI50: 31.4 µM
  TGI: > 100 µM
HS 578T breast
  GI50: > 100 µM
  TGI: > 100 µM
HT29 colon
  GI50: 35.6 µM
  TGI: > 100 µM
IGROV1 ovarian
  TGI: > 100 µM
K-562 leukemia
  GI50: 25.8 µM
  TGI: > 100 µM
KM12 colon
  GI50: 49.1 µM
  TGI: > 100 µM
LOX IMVI melanoma
  GI50: 40.3 µM
  TGI: > 100 µM
M14 melanoma
  GI50: 32.1 µM
  TGI: > 100 µM
MALME-3M melanoma
  GI50: 24.2 µM
  TGI: 61.1 µM
MCF7 breast
  GI50: 22.2 µM
  TGI: 66.1 µM
MDA-MB-231 breast
  GI50: > 100 µM
  TGI: > 100 µM
MDA-MB-435
  TGI: > 100 µM
MDA-N
  TGI: > 100 µM
MOLT-4 leukemia
  GI50: 22.4 µM
  TGI: > 100 µM
NCI-H226 lung
  GI50: 28.4 µM
  TGI: 85 µM
NCI-H23 lung
  TGI: > 100 µM
NCI-H460 lung
  GI50: 32 µM
  TGI: > 100 µM
NCI-H522 lung
  GI50: 29 µM
  TGI: 52.6 µM
NCI/ADR-RES ovarian
  GI50: > 100 µM
  TGI: > 100 µM
OVCAR-3 ovarian
  GI50: 20.3 µM
  TGI: 52.1 µM
OVCAR-4 ovarian
  GI50: 25.2 µM
  TGI: > 100 µM
OVCAR-5 ovarian
  TGI: > 100 µM
OVCAR-8 ovarian
  GI50: > 100 µM
  TGI: > 100 µM
PC-3 prostate
  TGI: > 100 µM
RXF 393 renal
  GI50: 25.4 µM
  TGI: 73.1 µM
SF-268 CNS
  GI50: > 100 µM
  TGI: > 100 µM
SF-539 CNS
  GI50: 26.6 µM
  TGI: 67.1 µM
SK-MEL-28 melanoma
  GI50: 37.3 µM
  TGI: > 100 µM
SK-MEL-5 melanoma
  GI50: 42.9 µM
  TGI: > 100 µM
SK-OV-3 ovarian
  GI50: > 100 µM
  TGI: > 100 µM
SN12C renal
  GI50: > 100 µM
  TGI: > 100 µM
SNB-19 CNS
  GI50: 31.3 µM
  TGI: > 100 µM
SNB-75 CNS
  TGI: > 100 µM
SR leukemia
  GI50: 31.2 µM
  TGI: > 100 µM
SW-620 colon
  TGI: > 100 µM
T-47D breast
  TGI: > 100 µM
TK-10 renal
  TGI: > 100 µM
U251 CNS
  GI50: 40 µM
  TGI: > 100 µM
UACC-257 melanoma
  TGI: > 100 µM
UACC-62 melanoma
  TGI: > 100 µM
UO-31 renal
  GI50: 31.3 µM
  TGI: > 100 µM

## CC1(C)[C@@H](Cn2cnc3c(N)ncnc32)CC[C@@]1(C)CO
786-0 renal
  TGI: > 100 µM
A498 renal
  TGI: > 100 µM
A549 NSCLC
  TGI: > 100 µM
ACHN renal
  TGI: > 100 µM
BT-549 breast
  TGI: > 100 µM
CAKI-1 renal
  TGI: > 100 µM
CCRF-CEM leukemia
  TGI: > 100 µM
COLO 205 colon
  TGI: > 100 µM
DU-145 prostate
  TGI: > 100 µM
EKVX NSCLC
  TGI: > 100 µM
HCC-2998 colon
  TGI: > 100 µM
HCT-116 colon
  TGI: > 100 µM
HCT-15 colon
  TGI: > 100 µM
HL-60(TB) leukemia
  TGI: > 100 µM
HOP-62 NSCLC
  TGI: > 100 µM
HOP-92 NSCLC
  TGI: > 100 µM
HS 578T breast
  TGI: > 100 µM
HT29 colon
  TGI: > 100 µM
IGROV1 ovarian
  TGI: > 100 µM
K-562 leukemia
  TGI: > 100 µM
KM12 colon
  TGI: > 100 µM
LOX IMVI melanoma
  TGI: > 100 µM
M14 melanoma
  TGI: > 100 µM
MALME-3M melanoma
  TGI: > 100 µM
MCF7 breast
  TGI: > 100 µM
MDA-MB-231 breast
  TGI: > 100 µM
MDA-MB-435
  TGI: > 100 µM
MDA-N
  TGI: > 100 µM
MOLT-4 leukemia
  TGI: > 100 µM
NCI-H226 lung
  TGI: > 100 µM
NCI-H23 lung
  TGI: > 100 µM
NCI-H460 lung
  TGI: > 100 µM
NCI-H522 lung
  TGI: > 100 µM
NCI/ADR-RES ovarian
  TGI: > 100 µM
OVCAR-3 ovarian
  TGI: > 100 µM
OVCAR-4 ovarian
  TGI: > 100 µM
OVCAR-5 ovarian
  TGI: > 100 µM
OVCAR-8 ovarian
  TGI: > 100 µM
PC-3 prostate
  TGI: > 100 µM
RXF 393 renal
  TGI: > 100 µM
SF-268 CNS
  TGI: > 100 µM
SF-295 CNS
  TGI: > 100 µM
SK-MEL-28 melanoma
  TGI: > 100 µM
SK-MEL-5 melanoma
  TGI: > 100 µM
SK-OV-3 ovarian
  TGI: > 100 µM
SN12C renal
  TGI: > 100 µM
SNB-19 CNS
  TGI: > 100 µM
SNB-75 CNS
  TGI: > 100 µM
SR leukemia
  TGI: 76.8 µM
SW-620 colon
  TGI: > 100 µM
T-47D breast
  TGI: > 100 µM
TK-10 renal
  TGI: > 100 µM
U251 CNS
  TGI: > 100 µM
UACC-257 melanoma
  TGI: > 100 µM
UACC-62 melanoma
  TGI: > 100 µM
UO-31 renal
  TGI: > 100 µM

## c1ccc(-c2sc(-c3cccs3)cc2Cc2cccs2)cc1
786-0 renal
  TGI: > 10 µM
A549 NSCLC
  TGI: > 10 µM
ACHN renal
  TGI: > 10 µM
BT-549 breast
  TGI: > 10 µM
CAKI-1 renal
  TGI: > 10 µM
CCRF-CEM leukemia
  TGI: > 10 µM
COLO 205 colon
  TGI: > 10 µM
DU-145 prostate
  TGI: > 10 µM
EKVX NSCLC
  TGI: > 10 µM
HCC-2998 colon
  TGI: > 10 µM
HCT-116 colon
  TGI: > 10 µM
HCT-15 colon
  TGI: > 10 µM
HL-60(TB) leukemia
  TGI: > 10 µM
HOP-62 NSCLC
  TGI: > 10 µM
HOP-92 NSCLC
  TGI: > 10 µM
HS 578T breast
  TGI: > 10 µM
HT29 colon
  TGI: > 10 µM
IGROV1 ovarian
  TGI: > 10 µM
K-562 leukemia
  TGI: > 10 µM
KM12 colon
  TGI: > 10 µM
LOX IMVI melanoma
  TGI: > 10 µM
M14 melanoma
  TGI: > 10 µM
MALME-3M melanoma
  TGI: > 10 µM
MCF7 breast
  TGI: > 10 µM
MDA-MB-231 breast
  TGI: > 10 µM
MDA-MB-435
  TGI: > 10 µM
MDA-N
  TGI: > 10 µM
MOLT-4 leukemia
  TGI: > 10 µM
NCI-H226 lung
  TGI: > 10 µM
NCI-H23 lung
  TGI: > 10 µM
NCI-H460 lung
  TGI: > 10 µM
NCI-H522 lung
  TGI: > 10 µM
NCI/ADR-RES ovarian
  TGI: > 10 µM
OVCAR-4 ovarian
  TGI: > 10 µM
OVCAR-8 ovarian
  TGI: > 10 µM
PC-3 prostate
  TGI: > 10 µM
RPMI-8226 leukemia
  TGI: > 10 µM
RXF 393 renal
  TGI: > 10 µM
SF-268 CNS
  TGI: > 10 µM
SF-295 CNS
  TGI: > 10 µM
SF-539 CNS
  TGI: > 10 µM
SK-MEL-28 melanoma
  TGI: > 10 µM
SK-MEL-5 melanoma
  TGI: > 10 µM
SK-OV-3 ovarian
  TGI: > 10 µM
SN12C renal
  TGI: > 10 µM
SNB-19 CNS
  TGI: > 10 µM
SNB-75 CNS
  TGI: > 10 µM
SR leukemia
  TGI: > 10 µM
SW-620 colon
  TGI: > 10 µM
T-47D breast
  TGI: > 10 µM
TK-10 renal
  TGI: > 10 µM
UACC-257 melanoma
  TGI: > 10 µM
UACC-62 melanoma
  TGI: > 10 µM
UO-31 renal
  TGI: > 10 µM
